In patent publication US20230187019A1, “METHOD FOR DETERMINING A DRUG COMBINATION VIA A BLOCKING MODEL OF A MULTI-SITE-TARGETED PROTEIN AND APPLICATIONS THEREOF” (National Tsing Hua University, priority 2021, published 2023):
Entries after “also recorded” stand apart in the source; their conditions may differ. Where two headings read alike, the source gives them in different places.

Key:
HCT116 = assay: Cell viability assay on HCT116; type: cell-based, human; details: for viability at 20 µM: Homo sapiens; for HCT116 Cell Viability: remaining viability
shCtrl/HCT116 = assay: Cell viability assay on shCtrl/HCT116 (control strain); type: cell-based, human; details: for viability at 20 µM: Homo sapiens; for shCtrl/HCT116 Cell Viability: remaining viability
shATG4B/HCT116 = assay: Cell viability assay on shATG4B/HCT116 (ATG4B silencing strain); type: cell-based, human; details: for viability at 20 µM: Homo sapiens; for difference of cell viability inhibition between shATG4B/HCT116 (S strain) and shCtrl/HCT116 (C strain): Student's t-test, p-value <0.05; for shATG4B/HCT116 Cell Viability: remaining viability
AsPC-1 = assay: Cell viability assay (MTT) on AsPC-1; details: for viability at 20 µM: Homo sapiens, ASPC1, read-out: AsPC-1 Cell Viability, remaining viability, 20 μM drug, normalized by blank control, three repeats; for inhibition of cell viability, significance: 20 μM, AsPC-1, p-value <0.05; for AsPC-1 Cell Viability: remaining viability, 20 μM drug, normalized by blank control, three repeats
Protocol: The cell viability was measured using the MTT assay or CellTiter-Glo Luminescent Cell Viability Assay. For MTT assay, mouse AK4.4 (1,000 cells/well) and human AsPC-1 (1,500 cells/well) cells were seeded in 96-well plates and cultured in serum-free medium (SFM) containing indicated concentrations of drugs for 48 hours. To measure the cell viability, 15 μL MTT (3-(4,5-dimethylthiazol-2-yl)-2,5-diphenyltetrazolium bromide, 5 mg/mL in PBS) was added in each well and kept at 37° C. for three hours. The precipitated crystals were then dissolved in 50 μL DMSO, and the absorbance at 570 nm was measured by Multiskan GO Microplate Spectrophotometer (Thermo Scientific, USA) to estimate the cell survival rate. To quantify the drug combination effect, the combination index was calculated when the cell viability was reduced by 50% using the following Equation (1):

[1] = HCT-116, remaining viability, 20 μM drug, normalized by blank control, three repeats, read-out: HCT116 Cell Viability
[2] = HCT-116, remaining viability, 20 μM drug, C strain, read-out: shCtrl/HCT116 Cell Viability
[3] = HCT-116, remaining viability, 20 μM drug, S strain, read-out: shATG4B/HCT116 Cell Viability
[4] = 20 μM drug, normalized by blank control, three repeats

Row | SMILES | viability at 20 µM (HCT116; [1]) | viability at 20 µM (shCtrl/HCT116; [2]) | viability at 20 µM (shATG4B/HCT116; [3]) | viability at 20 µM (AsPC-1) | inhibition of cell viability, significance (AsPC-1) | also measured
1 | Cc1cnc(C(=O)N[C@H]2CCCCC/C=C\[C@@H]3C[C@@]3(C(=O)NS(=O)(=O)C3CC3)NC(=O)[C@@H]3C[C@@H](Oc4nc5ccccc5c5ccccc45)CN3C2=O)cn1 [Paritaprevir] | 85.8 ± 3.3% | 75.4 ± 1.3% | 88 ± 1.4% | 98.7 ± 3% |  | difference of cell viability inhibition between shATG4B/HCT116 (S strain) and shCtrl/HCT116 (C strain) (shATG4B/HCT116): statistically significant; also recorded: significant differences
2 | Cc1nc2c([nH]1)-c1ccccc1N(C(=O)c1ccc(NC(=O)c3ccccc3-c3ccccc3)cc1)CC2 [Conivaptan] | 67.8 ± 0.5% | 69.5 ± 2.2% | 84 ± 2% | 99.3 ± 2.8% |  | 
3 | COC(=O)N[C@H](C(=O)N1CCC[C@H]1c1nc(-c2ccc(-c3ccc(-c4c[nH]c([C@@H]5CCCN5C(=O)[C@@H](NC(=O)OC)C(C)C)n4)cc3)cc2)c[nH]1)C(C)C [Daclatasvir] | 62.7 ± 0.3% | 58.8 ± 2.6% | 69.4 ± 3.7% | 71.1 ± 4.2% |  | 
4 | C[C@@H]1CCO[C@H]2Cn3cc(C(=O)NCc4ccc(F)cc4F)c(=O)c(O)c3C(=O)N12 [Dolutegravir] | 88 ± 4% | 85.5 ± 2.9% | 89.4 ± 2.5% | 106 ± 5.3% |  | difference of cell viability inhibition between shATG4B/HCT116 (S strain) and shCtrl/HCT116 (C strain) (shATG4B/HCT116): statistically significant; also recorded: significant differences
5 | C#C[C@]1(O)CC[C@H]2[C@@H]3CCc4cc(O)ccc4[C@H]3CC[C@@]21C [Ethynyl Estradiol] | 47% | 49% | 70% | 80.1 ± 6.4% | statistically significant | HCT116 Cell Viability (HCT116; [4]): 47.4 ± 1.8%; shCtrl/HCT116 Cell Viability (shCtrl/HCT116; 20 μM drug, C strain): 48.7 ± 1.4%; difference of cell viability inhibition between shATG4B/HCT116 (S strain) and shCtrl/HCT116 (C strain) (shATG4B/HCT116): statistically significant; also recorded: significant differences; shATG4B/HCT116 Cell Viability (shATG4B/HCT116; 20 μM drug, S strain): 69.5 ± 3.3%
6 | CCC(C)n1ncn(-c2ccc(N3CCN(c4ccc(OCC5COC(Cn6cncn6)(c6ccc(Cl)cc6Cl)O5)cc4)CC3)cc2)c1=O (stereo not drawn) [Itraconazole] | 82.6 ± 2.1% | 84.1 ± 1.9% | 91.3 ± 2.3% | 93.6 ± 6.3% |  | 
7 | Cc1ccccc1-c1cc(N2CCN(C)CC2)ncc1N(C)C(=O)C(C)(C)c1cc(C(F)(F)F)cc(C(F)(F)F)c1 [Netupitant] | 3% |  |  | 43% | statistically significant | HCT116 Cell Viability (HCT116; [4]): 2.8 ± 0.4%; AsPC-1 Cell Viability (AsPC-1): 42.9 ± 5.1%
8 | O=C(c1c2ccccc2cc2ccccc12)N1CCC(N2CCC[C@@H](C(=O)N3CCOCC3)C2)CC1 [CP-640186] |  |  |  |  |  | HCT116 Cell Viability (HCT116; [4]): 84.3 ± 2.0%; AsPC-1 Cell Viability (AsPC-1): 87.4 ± 4.7%
9 | CC(C)[C@@]1(NC(=O)[C@@H]2C[C@@H]3c4cccc5[nH]cc(c45)C[C@H]3N(C)C2)O[C@@]2(O)[C@@H]3CCCN3C(=O)[C@H](Cc3ccccc3)N2C1=O [Dihydroergocristine] | 64 ± 3.7% |  |  | 77.1 ± 1.6% | statistically significant | 
10 | CO[C@H]1C[C@@H]2CC[C@@H](C)[C@@](O)(O2)C(=O)C(=O)N2CCCC[C@H]2C(=O)O[C@H]([C@H](C)C[C@@H]2CC[C@@H](OC(=O)C(C)(CO)CO)[C@H](OC)C2)CC(=O)[C@H](C)/C=C(\C)[C@@H](O)[C@@H](OC)C(=O)[C@H](C)C[C@H](C)/C=C/C=C/C=C/1C [Temsirolimus] | 52.1 ± 0.9% | 50% | 60% | 69 ± 4.2% | statistically significant | shCtrl/HCT116 Cell Viability (shCtrl/HCT116; 20 μM drug, C strain): 49.5 ± 3.5%; difference of cell viability inhibition between shATG4B/HCT116 (S strain) and shCtrl/HCT116 (C strain) (shATG4B/HCT116; listed as emsirolimus): significant differences; difference of cell viability inhibition between shATG4B/HCT116 (S strain) and shCtrl/HCT116 (C strain) (shATG4B/HCT116; listed as temsirolimus): statistically significant; shATG4B/HCT116 Cell Viability (shATG4B/HCT116; 20 μM drug, S strain): 60.5 ± 1.9%
11 | Cc1ccc(C(=O)Nc2ccc(S(=O)(=O)O)c3cc(S(=O)(=O)O)cc(S(=O)(=O)O)c23)cc1NC(=O)c1cccc(NC(=O)Nc2cccc(C(=O)Nc3cc(C(=O)Nc4ccc(S(=O)(=O)O)c5cc(S(=O)(=O)O)cc(S(=O)(=O)O)c45)ccc3C)c2)c1 [Suramin] | 100 ± 2.3% | 104 ± 4.4% | 98.3 ± 0.7% | 107 ± 6.5% |  | 
12 | Cc1cc(-c2ccc(/N=N/c3ccc4c(S(=O)(=O)O)cc(S(=O)(=O)O)c(N)c4c3O)c(C)c2)ccc1/N=N/c1ccc2c(S(=O)(=O)O)cc(S(=O)(=O)O)c(N)c2c1O [Evans Blue] | 35% | 35% | 34% | 34% | statistically significant | HCT116 Cell Viability (HCT116; [4]): 34.8 ± 1.3%; shCtrl/HCT116 Cell Viability (shCtrl/HCT116; 20 μM drug, C strain): 34.9 ± 0.3%; shATG4B/HCT116 Cell Viability (shATG4B/HCT116; 20 μM drug, S strain): 34.5 ± 1.7%; AsPC-1 Cell Viability (AsPC-1): 33.6 ± 1.2%
13 | CC(C)(C)NC(=O)[C@@H]1C[C@@H]2CCCC[C@@H]2CN1C[C@@H](O)[C@H](Cc1ccccc1)NC(=O)[C@H](CC(N)=O)NC(=O)c1ccc2ccccc2n1 [Saquinavir] | 67 ± 1.2% | 63.5 ± 0.8% | 65.4 ± 1.2% | 84.6 ± 5.5% |  | 
14 | CC[C@@]1(O)C[C@H](O[C@H]2C[C@H](N(C)C)[C@H](O[C@H]3C[C@H](O)[C@H](O[C@H]4CCC(=O)[C@H](C)O4)[C@H](C)O3)[C@H](C)O2)c2c(cc3c(c2O)C(=O)c2c(O)cccc2C3=O)[C@H]1C(=O)OC [Aclacinomycin A] |  |  |  |  | statistically significant | HCT116 Cell Viability (HCT116; [4]): 27.9 ± 1.3%; HCT116 Cell Viability (HCT116; 20 μM drug, normalized by blank control, three repeats, listed as aclacinomycin A): 28%; shCtrl/HCT116 Cell Viability (shCtrl/HCT116; 20 μM drug, C strain): 27.7 ± 1.2%; shCtrl/HCT116 Cell Viability (shCtrl/HCT116; 20 μM drug, C strain, listed as aclacinomycin A): 28%; difference of cell viability inhibition between shATG4B/HCT116 (S strain) and shCtrl/HCT116 (C strain) (shATG4B/HCT116): statistically significant; also recorded: significant differences; shATG4B/HCT116 Cell Viability (shATG4B/HCT116; 20 μM drug, S strain): 38.4 ± 1.3%; shATG4B/HCT116 Cell Viability (shATG4B/HCT116; 20 μM drug, S strain, listed as aclacinomycin A): 38%; AsPC-1 Cell Viability (AsPC-1): 48.3 ± 4.6%; AsPC-1 Cell Viability (AsPC-1; listed as aclacinomycin A): 48%
15 | Cc1cn(-c2cc(NC(=O)c3ccc(C)c(Nc4nccc(-c5cccnc5)n4)c3)cc(C(F)(F)F)c2)cn1 [Nilotinib] | 61.4 ± 4.4% | 59.6 ± 1.7% | 68.2 ± 1.1% | 95.2 ± 3.4% |  | 
16 | COC(=O)N[C@H](C(=O)N1CC2(CC2)C[C@H]1c1nc(-c2ccc3c(c2)C(F)(F)c2cc(-c4ccc5[nH]c([C@@H]6[C@H]7CC[C@H](C7)N6C(=O)[C@@H](NC(=O)OC)C(C)C)nc5c4)ccc2-3)c[nH]1)C(C)C [Ledipasvir] |  |  |  | 95.2 ± 2.9% |  | viability at 20 µM (HCT116; HCT-116, read-out: HCT116 Cell Viability, remaining viability, 20 μM drug, normalized by blank control, three repeats): 82.9 ± 2.7%; viability at 20 µM (shCtrl/HCT116; HCT-116, read-out: shCtrl/HCT116 Cell Viability, remaining viability, 20 μM drug, C strain): 72.5 ± 0.8%; viability at 20 µM (shATG4B/HCT116; HCT-116, read-out: shATG4B/HCT116 Cell Viability): 90.2 ± 1.8%; difference of cell viability inhibition between shATG4B/HCT116 (S strain) and shCtrl/HCT116 (C strain) (shATG4B/HCT116): statistically significant; also recorded: significant differences
17 | COc1ccc2c(c1)C(=O)N(CCc1ccc(S(=O)(=O)NC(=O)NC3CCCCC3)cc1)C(=O)C2(C)C [Gliquidone] | 87 ± 1.6% | 88.4 ± 7.3% | 89.6 ± 0.6% | 92.4 ± 5.3% |  | 
